{"source": "patent US20240252463A1", "about": "“METHODS OF TREATING FIBROTIC PATHOLOGIES” (Mayo Foundation for Medical Education and Research, priority 2018, published 2024)", "key": {"YAP/TAZ": {"tested_on": "YAP/TAZ", "test": "YAP/TAZ nuclear localization in IMR-90 and other mesenchymal cells (cardiac, dermal fibroblasts, hepatic stellate cells)", "assay_type": "cell-based, human", "conditions": "FIG. 37B"}, "YAP/TAZ target genes": {"tested_on": "YAP/TAZ target genes", "test": "YAP/TAZ target gene expression in flow-sorted lung cells of bleomycin-injured mice", "assay_type": "in vivo, mouse", "conditions": "bleomycin day 10, two doses of DHX (2 and 24 hours prior to collecting lungs)", "experimental": "29A. Two groups of mice were injured intratracheally with bleomycin at day 0, on day 10 one group received two doses of DHX (2 and 24 hours prior to collecting lungs) and the other received vehicle control. On day 11 lungs were collected to flow sort fibroblasts, epithelial, and endothelial cells. 29B. Changes in RNA expression of YAP/TAZ target genes from freshly isolated cells.\nCell Sorting: FACS: PBS perfused mouse lungs were finely minced with a razor blade in a 100 mm petri dish in 1 mL of cold DMEM medium containing 0.2 mg ml^−1 Liberase DL (Roche) and 100 U ml^−1 DNase I (Roche). The mixture was transferred to 15 ml tubes and incubated at 37° C. for 30 min in a water bath. Enzymatic digestion was inactivated by adding DMEM medium containing 10% fetal bovine serum. The cell suspension was passed once through a 40 µm cell strainer (Fisher) to remove multicellular debris. Cells were then centrifuged at 1,300 r.p.m. at 4° C. for 10 min, washed once in PBS and resuspended in 0.2 ml of FACS buffer (1% BSA, 0.5 μM EDTA pH 7.4 in PBS). The single cell suspension was then incubated with anti-CD45-PerCp-Cy5.5, anti-CD31-PE, anti-PDGFRα-APC and anti-EpCAM-BV421 antibodies (1:200) (Biolegend) for 20 min on ice. After incubation, cells were washed with ice-cold FACS buffer and resuspended in 1 ml of FACS buffer. FACS sorting was conducted using a BD FACS Aria II (BD Biosciences). […]"}, "cAMP": {"tested_on": "cAMP", "test": "cAMP Assay (cAMP-Glo) in lung fibroblasts", "assay_type": "cell-based, human", "conditions": "IPF patient-derived fibroblasts, 20 minutes, DHX 10 μM", "experimental": "cAMP Assay: IPF patient derived fibroblasts were plated in EMEM containing 10% FBS overnight. […] 20 minutes prior to cell lysis media was removed and cells were treated with “induction buffer” containing nonselective phosphodiesterase inhibitors and the indicated concentration of compound(s). Luminescence was measured on a Flexstation 3 (Molecular Devices) plate reader."}, "αSMA": {"tested_on": "αSMA", "test": "αSMA intensity (fibroblast activation) in IPF patient-derived lung fibroblasts + TGFβ", "assay_type": "cell-based, human", "conditions": "Homo sapiens, SMA, 1 μM + TGFβ, treated for 72 hours"}}, "note": "Like-named read-outs stand apart in the source and are kept apart here."}
{"smiles": "Oc1cc2c(cc1O)[C@H]1c3ccccc3CN[C@@H]1CC2", "note": "(racemic) [Dihydrexidine, dihydrexidine]", "values": [{"measurement": "YAP/TAZ nuclear localization in mesenchymal cells derived from uterine fibroids", "setting": "YAP/TAZ", "value": "marginal inhibition of YAP/TAZ nuclear localization"}, {"measurement": "expression of YAP/TAZ target genes in freshly isolated lung fibroblasts, epithelial and endothelial cells", "setting": "YAP/TAZ target genes", "value": "selectively blocks expression of YAP/TAZ target genes in lung fibroblasts in vivo"}, {"measurement": "cAMP", "setting": "cAMP", "value": "elevated cAMP"}, {"measurement": "activity at 1 µM", "setting": "αSMA; patient sample IPF-1, read-out: αSMA intensity (% of DMSO control) IPF-1", "value": 4.98, "unit": "%"}, {"measurement": "activity at 1 µM", "setting": "αSMA; patient sample IPF-2, read-out: αSMA intensity (% of DMSO control) IPF-2", "value": 0.0469, "unit": "%"}, {"measurement": "activity at 1 µM", "setting": "αSMA; patient sample IPF-3, read-out: αSMA intensity (% of DMSO control) IPF-3", "value": 0.513, "unit": "%"}, {"measurement": "activity at 1 µM", "setting": "αSMA; patient sample IPF-4, read-out: αSMA intensity (% of DMSO control) IPF-4", "value": 12, "unit": "%"}]}
